Where “and” joins values, the source holds several entries; their conditions need not be identical. Equal values may be shown once.
Columns and labels:
[1] = Plasma protein binding, rat plasma; type: in vitro ADME
Experimental: (§1) Plasma stability and protein binding were measured using rat and human plasma.

[2] = Plasma stability, human plasma; type: in vitro ADME
Experimental: as §1

[3] = Pharmacokinetic test in SD male rats (Experimental Examples 11, 12, 15); type: in vivo; details: plasma, rat; for Vd: read-out: Vss; for bioavailability: read-out: Ft (bioavailability)
Experimental: (§2) Intravenous administration was performed through a tube inserted into the femoral vein, and oral administration was performed using oral gavage.
(§3) After the administration, the experimental animals' blood was taken at predetermined time intervals for 24 hours. Then, the blood was centrifuged to separate plasma. The plasma samples were pretreated with a suitable organic solvent, and then the concentration of the plasma samples was analyzed by LC-MS/MS. […] The results of noncompartmental pharmacokinetic parameters calculated from the blood concentration-time data are shown in Tables 9 through 13. In FIGS. 12 through 16, I.V. represents an intravenous administration group, P.O. represents an oral administration group, and the definition of each parameter in Tables 9 through 13 is shown in Table 14.

SPF Sprague Dawley rats = experiment: Toxicity assay, intraperitoneal injection, rats; details: i.p. 20, 10 and 1 mg/kg
Experimental: (§4) The compounds synthesized in the examples of the present invention were assayed for cytotoxicity in animals.

PAMPA = type: in vitro ADME
Equilibrium solubility = type: physicochemical; details: thermodynamic from solid
ICR mice = experiment: Toxicity assay, intraperitoneal injection, mice; details: i.p. 20, 10 and 1 mg/kg
Experimental: as §4

rats [4] = experiment: Single-dose toxicity in rats; details: rat, in vivo
Log P = type: physicochemical
each cell line = experiment: Cytotoxicity, Cyto X cell viability assay kit; type: cell-based
[5] = Plasma protein binding, human plasma; type: in vitro ADME
Experimental: as §1

[6] = Pharmacokinetic test in ICR male mice (Experimental Example 13); type: in vivo; details: mouse, plasma, po, P.O., 10 mg/kg
Experimental: as §2, §3

[7] = Plasma stability, rat plasma; type: in vitro ADME
Experimental: as §1

hERG channel protein = hERG channel protein (Homo sapiens, UniProt Q12809); experiment: hERG ligand binding assay (fluorescence polarization)
Sequence of hERG channel protein (Q12809 whole entry): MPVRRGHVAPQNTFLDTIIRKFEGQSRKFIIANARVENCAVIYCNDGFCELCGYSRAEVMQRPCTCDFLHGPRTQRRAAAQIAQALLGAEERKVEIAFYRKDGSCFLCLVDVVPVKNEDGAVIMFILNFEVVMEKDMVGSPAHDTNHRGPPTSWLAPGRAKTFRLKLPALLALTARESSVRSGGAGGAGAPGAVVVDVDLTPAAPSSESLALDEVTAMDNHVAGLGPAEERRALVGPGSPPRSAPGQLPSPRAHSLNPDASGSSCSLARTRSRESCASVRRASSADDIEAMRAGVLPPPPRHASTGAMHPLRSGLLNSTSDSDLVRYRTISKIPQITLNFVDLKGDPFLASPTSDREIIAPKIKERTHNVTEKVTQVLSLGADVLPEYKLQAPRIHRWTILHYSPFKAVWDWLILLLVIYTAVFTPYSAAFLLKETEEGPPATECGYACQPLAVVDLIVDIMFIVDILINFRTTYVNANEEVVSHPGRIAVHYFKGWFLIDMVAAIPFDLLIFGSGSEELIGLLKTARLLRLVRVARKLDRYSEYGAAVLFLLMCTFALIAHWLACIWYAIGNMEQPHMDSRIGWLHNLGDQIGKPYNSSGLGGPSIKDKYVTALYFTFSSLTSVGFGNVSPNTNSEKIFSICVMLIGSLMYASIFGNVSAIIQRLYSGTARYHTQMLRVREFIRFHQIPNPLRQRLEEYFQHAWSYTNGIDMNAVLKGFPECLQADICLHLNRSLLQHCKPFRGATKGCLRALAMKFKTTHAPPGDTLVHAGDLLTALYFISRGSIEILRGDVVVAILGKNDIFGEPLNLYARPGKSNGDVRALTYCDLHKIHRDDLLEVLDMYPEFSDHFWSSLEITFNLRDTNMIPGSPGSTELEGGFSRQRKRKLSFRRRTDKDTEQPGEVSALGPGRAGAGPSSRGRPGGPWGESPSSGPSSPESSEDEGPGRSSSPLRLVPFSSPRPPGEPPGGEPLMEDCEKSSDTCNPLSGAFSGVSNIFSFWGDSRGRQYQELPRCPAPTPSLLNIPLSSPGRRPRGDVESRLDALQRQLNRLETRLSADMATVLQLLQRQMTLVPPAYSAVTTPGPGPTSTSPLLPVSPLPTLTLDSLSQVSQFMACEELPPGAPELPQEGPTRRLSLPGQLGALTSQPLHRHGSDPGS

pKa = type: physicochemical
rats [8] = details: rat, in vivo
Kinetic solubility = type: physicochemical; details: kinetic from dmso stock
[9] = Pharmacokinetic test in dogs (Experimental Example 14); type: in vivo; details: dog, plasma; for bioavailability: read-out: Ft (bioavailability)
Experimental: as §2, §3

[10] = tested on: histidine-requiring Salmonella (strains TA98, TA100, TA1535 and TA1537) and tryptophan-requiring Escherichia coli (strain WP2uvrA (pKM101)); type: cell-based
From the text: In addition, for each strain, the number of back-mutant colonies in the positive control group certainly exceeded twice the number of back-mutant colonies in the negative control group.

[11] = po, 5 mg/kg, P.O., 5 mg/kg (Exp. 11-2)
[12] = po, 10 mg/kg, 10 mg/kg (Exp. 12-2)
[13] = po, 10 mg/kg, oral 10 mg/kg in 0.5% MC (Exp. 15-1)
[14] = po, 10 mg/kg, oral 10 mg/kg in Vehicle: 5% DMSO, 40% PEG400 and 55% DW (Exp. 15-2)
[15] = po, 10 mg/kg, G2, PO, dissolved in a solvent
[16] = po, 10 mg/kg, G3, PO, powder state in a capsule

In the case of O[C@@H]1[C@H](O)CS[C@H]1n1cnc2c(NCc3cccc(Cl)c3)nc(Cl)nc21 [Example 2, (2R,3R,4S)-2-(2-Chloro-6-(3-chlorobenzylamino)-9H-purin-9-yl)tetrahydrothiophen-3,4-diol], the fraction unbound [1] is reported as 0.098, the Plasma stability [2] is reported as 98.9% and the clearance ([3]; iv, I.V., 5 mg/kg) is reported as 6.05 mL/min/kg. It also gave a Vd ([3]; iv, I.V., 5 mg/kg) of 0.881 ± 0.203 L/kg, a bioavailability ([3]; po, P.O., 5 mg/kg) of 49.7% and a clearance ([3]; IV, 2 mg/kg) of 6.08 mL/min/kg. For the same compound, the Vd ([3]; IV, 2 mg/kg) was 2.27 ± 0.863 L/kg, the bioavailability ([3]; PO, 10 mg/kg (Exp. 12-2)) was > 99.9% and the AUC(0-inf) ([3]; iv, 2 mg/kg) was 5490 ± 300 ng·h/mL. It also gave an AUC(0-t) ([3]; iv, 2 mg/kg) of 5200 ± 548 ng·h/mL, a half-life ([3]; iv, 2 mg/kg, 2 mg/kg (Exp. 12-1)) of 6 ± 2.98 h and an AUC(0-inf) ([3]; iv, 5 mg/kg, I.V.) of 14100 ± 2590 ng·h/mL. It also gave an AUC(0-t) ([3]; iv, 5 mg/kg, I.V.) of 14000 ± 2550 ng·h/mL, a half-life ([3]; iv, 5 mg/kg, I.V., 5 mg/kg (Exp. 11-1)) of 3.6 ± 0.589 h and an AUC(0-inf) ([3]; po, 5 mg/kg, P.O.) of 7040 ± 551 ng·h/mL. The AUC(0-t) ([3]; po, 5 mg/kg, P.O.) was 6980 ± 584 ng·h/mL, the Cmax [3, 11] was 1450 ± 255 ng/mL and the Tmax [3, 11] was 1.33 ± 0.577 h. It also gave a half-life [3, 11] of 3.26 ± 0.945 h, an AUC(0-inf) [3, 12] of 26700 ± 75 ng·h/mL and an AUC(0-t) [3, 12] of 26500 ± 5880 ng·h/mL. The Cmax [3, 12] was 2710 ± 183 ng/mL, the Tmax [3, 12] was 2.42 ± 3.13 h and the half-life [3, 12] was 3.34 ± 0.075 h. It also gave an AUC(0-inf) [3, 13] of 41400 ± 26000 ng·h/mL, an AUC(0-t) [3, 13] of 40100 ± 26800 ng·h/mL and a Cmax [3, 13] of 5720 ± 6110 ng/mL. The Tmax [3, 13] was 1.33 ± 0.58 h, the half-life [3, 13] was 4.56 ± 2.8 h and the AUC(0-inf) [3, 14] was 26700 ± 75 ng·h/mL. It also gave an AUC(0-t) [3, 14] of 26500 ± 5880 ng·h/mL, a Cmax [3, 14] of 2710 ± 183 ng/mL and a Tmax [3, 14] of 2.42 ± 3.13 h. The half-life [3, 14] was 3.34 ± 0.075 h, the “weight gain or feed intake vs control group” value (SPF Sprague Dawley rats) was “No difference in weight gain or feed intake” and the death (SPF Sprague Dawley rats; 24 hrs observation) was “No death was observed”. The PAMPA (PAMPA) was −4.49, the solubility thermodynamic (Equilibrium solubility) was 6.7 µM and 2.76 µg/mL and the “weight gain or feed intake vs control group” value (ICR mice) was “No difference in weight gain or feed intake”. The death (ICR mice; 24 hrs observation) was “No death was observed”, the “Toxicity, Single-dose toxicity evaluation” value (rats [4]) was “Not detected” and the logP (Log P) was 3.18. The “Toxicity, Cytotoxicity evaluation” value (each cell line) was “Not detected”, the IC50 (each cell line; each cell line) was ≥ 10 µM and the fraction unbound [5] was 0.013. It also gave an AUC(0-inf) [6] of 102000 ± 13500 ng·h/mL, an AUC(0-t) [6] of 100000 ± 13200 ng·h/mL and a Cmax [6] of 8570 ± 1520 ng/mL. For the same compound, the Tmax [6] was 6.13 ± 3.75 h, the half-life [6] was 3.61 ± 0.3 h and the Plasma stability [7] was > 99.9%. The “Toxicity, hERG ligand binding assay evaluation” value (hERG channel protein) was “Not detected”, the “inhibition rate, hERG ligand binding” value (hERG channel protein; 10 μM of the compound) was ≤ 50% and the pKa (pKa) was 11.3. For the same compound, the “death after single dose” value (rats [8]) was “no animals died”, the solubility kinetic (Kinetic solubility) was 361 µM and 149 µg/mL and the AUC(0-inf) ([9]; iv, 2 mg/kg, G1, IV) was 1070 ± 620 ng·h/mL. For the same compound, the AUC(0-t) ([9]; iv, 2 mg/kg, G1, IV) was 948 ± 464 ng·h/mL, the half-life ([9]; iv, 2 mg/kg, G1, IV) was 2.17 ± 0.867 h and the bioavailability ([9]; po, 10 mg/kg, G2, PO, 10 mg/kg, dissolved in a solvent) was 82%. It also gave an AUC(0-inf) [9, 15] of 3990 ± 1090 ng·h/mL, an AUC(0-t) [9, 15] of 3880 ± 1030 ng·h/mL and a Cmax [9, 15] of 467 ± 73 ng/mL. For the same compound, the Tmax [9, 15] was 1.67 ± 0.58 h, the half-life [9, 15] was 4.21 ± 1.41 h and the bioavailability ([9]; po, 10 mg/kg, G3, PO, 10 mg/kg, powder state in a capsule) was > 99.9%. The AUC(0-inf) [9, 16] was 6350 ± 830 ng·h/mL, the AUC(0-t) [9, 16] was 5640 ± 840 ng·h/mL and the Cmax [9, 16] was 1140 ± 230 ng/mL. It also gave a Tmax [9, 16] of 2 h, a half-life [9, 16] of 5.53 ± 3.06 h and a clearance ([9]; G1, IV, 2 mg/kg) of 37.8 mL/min/kg. The Vd ([9]; G1, IV, 2 mg/kg, read-out: Vss) was 6.02 ± 0.79 L/kg, the “Toxicity, Genotoxicity evaluation” value [10] was “Not detected” and the “number of back-mutant colonies vs negative control group” value ([10]; all doses of each strain, with and without metabolic activation) was “did not exceed twice the number of back-mutant colonies of the negative control group”.

— patent US11266650B2, “Pharmaceutical composition for preventing and treating nonalcoholic steatohepatitis, hepatic fibrosis, and liver cirrhosis, comprising adenosine derivatives” (FUTURE MEDICINE CO., LTD., priority 2016, dated 2022)
